# Molecular target: Tyrosine-protein kinase ABL1 (Homo sapiens) (UniProt P00519)
# Experiment: ABL1 kinase inhibitors, dose response, biochemical, Z'-LYTE FRET, direct format, recombinant human (AID 1671204)
# Details: Z'-LYTE FRET kinase assay
# Sequence of Tyrosine-protein kinase ABL1 (Homo sapiens) (P00519 whole entry, looked up): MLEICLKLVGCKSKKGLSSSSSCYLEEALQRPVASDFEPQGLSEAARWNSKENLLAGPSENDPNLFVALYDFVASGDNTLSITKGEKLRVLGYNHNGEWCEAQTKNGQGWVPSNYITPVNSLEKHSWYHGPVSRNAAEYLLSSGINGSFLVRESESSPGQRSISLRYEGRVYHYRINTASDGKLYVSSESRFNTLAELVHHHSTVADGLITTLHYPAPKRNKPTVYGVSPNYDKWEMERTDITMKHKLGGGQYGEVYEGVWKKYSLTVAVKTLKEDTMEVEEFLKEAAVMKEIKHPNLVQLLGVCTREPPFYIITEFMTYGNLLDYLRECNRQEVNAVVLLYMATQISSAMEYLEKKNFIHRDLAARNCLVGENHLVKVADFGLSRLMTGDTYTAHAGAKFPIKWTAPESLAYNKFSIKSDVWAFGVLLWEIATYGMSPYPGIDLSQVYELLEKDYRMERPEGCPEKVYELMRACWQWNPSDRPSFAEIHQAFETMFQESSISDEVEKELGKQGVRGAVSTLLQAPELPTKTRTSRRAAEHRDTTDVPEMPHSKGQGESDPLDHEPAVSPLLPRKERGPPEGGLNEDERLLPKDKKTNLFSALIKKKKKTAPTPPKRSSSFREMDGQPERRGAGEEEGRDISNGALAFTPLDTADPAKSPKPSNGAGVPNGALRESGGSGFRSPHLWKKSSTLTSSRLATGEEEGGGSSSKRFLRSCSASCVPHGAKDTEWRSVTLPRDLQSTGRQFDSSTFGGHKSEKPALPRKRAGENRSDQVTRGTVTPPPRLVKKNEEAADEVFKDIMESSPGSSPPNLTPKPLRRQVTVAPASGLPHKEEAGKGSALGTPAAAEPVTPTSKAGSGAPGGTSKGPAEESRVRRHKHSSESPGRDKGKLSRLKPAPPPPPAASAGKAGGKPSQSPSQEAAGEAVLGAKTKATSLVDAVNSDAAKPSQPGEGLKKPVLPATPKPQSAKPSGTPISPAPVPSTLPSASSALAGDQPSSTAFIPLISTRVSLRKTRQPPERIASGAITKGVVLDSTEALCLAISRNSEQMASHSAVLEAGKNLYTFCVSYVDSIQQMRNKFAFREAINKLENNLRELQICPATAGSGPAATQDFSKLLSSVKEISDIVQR
compound,measurement,value
COc1cc2ncnc(Nc3cccc(Cl)c3)c2cc1OC,IC50,0.434 µM

# Source: PubChem BioAssay AID1671204
